According to patent publication US20240182470A1, “KRASG12C MUTANT PROTEIN INHIBITOR, PREARATION AND USE THEREOF” (YA THERAPEUTICS INC, priority 2021, published 2024):

system: H358 (KRAS G12C mutant) cells; test: Tumor cell proliferation inhibition assay (Cell Titer-Glo, 72 h); assay type: cell-based; conditions: inhibition of tumor cell proliferation, 72 hours with compound, 10% fetal bovine serum; read-out: NCI-H538 IC50(nm)
Experimental: The H358 (KRAS G^12C mutant) cells were digested, centrifuged and resuspended, and the cell density was measured with a Scepter automatic cell counter. The cells were diluted to a solution containing 44,000 cells per milliliter, and the density-adjusted cell solution was 90 microliters per well. into a 96-well culture plate. The 96-well plate was placed in a 37° C., 5% CO2 incubator. After the cells were cultured for 24 hours, different concentrations of the compounds to be tested were added. The cells were incubated with the compounds for 72 hours in the presence of 10% fetal bovine serum. Glo Luminescent Cell Viability Assay Kit (see manufacturer's instructions for details) was used to measure ATP content to assess cell growth inhibition. Briefly, 30 μl of Cell Titer-Glo reagent was added to each well, and the plate was shaken for 10 minutes to induce cell lysis. Fluoroskan
Ascent FL (Thermo) assay was used to record the fluorescent signal, and the maximum signal value was obtained from cells treated with dimethyl sulfoxide for 72 hours. The minimum signal value was obtained from the medium alone (the number of cells was zero), and the % inhibition rate=(the maximum signal value compound signal value)/(the maximum signal value—the minimum signal value×100%, and the data were processed using Graphpadprism 5 software. By sigmoid Dose-response curve fitting to calculate the IC50 value. “A” means IC50≤50 nM; “B” means 50<IC50≤500 nM; “C” means 500<IC50≤2000 nM; “D” means 2000 nM<IC50

Q: For “6-Chloro-7-(3-hydroxy-8-fluoronaphthyl)-8-fluoro-4-(((S)-4-(2-fluoroacryloyl)-3-carbonitrileethylpiperazine)-1-yl)-2-(((S)-2,2-difluorotetrahydro-1H-pyrincycline-7a(5H)-yl)methoxy)quinazoline [Compound 77]”, which IC50 is on record?
A: ≤ 50 nM

Q: For “6-Chloro-7-(3-hydroxy-8-fluoronaphthyl)-8-fluoro-4-(((S)-4-acryloyl-3-carbonitrileethylpiperazine)-1-yl)-2-(((S)-2,2-difluorotetrahydro-1H-pyrinyl-7a(5H)-yl)methoxy)quinazoline [Compound 76]”, which IC50 is on record?
A: ≤ 50 nM

Q: Which IC50 does the source give for “6-Chloro-7-(8-fluoronaphthyl)-8-fluoro-4-(((R)-4-acryloyl-2-methylpiperazine)-1-yl)-2-(((2R,7aS)-2-fluorotetrahydro-1H-pyrincycline-7a(5H)-yl)methoxy)quinazoline [Compound 37]” here?
A: ≤ 50 nM

Q: “6-Chloro-7-(8-fluoronaphthyl)-8-fluoro-4-(((S)-4-acryloyl-3-carbonitrileethylpiperazine)-2-(((S)-2,2- difluorotetrahydro-1H-pyrincyclo-7a(5H)-yl)methoxy)quinazoline [Compound 75]” was tested. Which IC50 did it give?
A: ≤ 50 nM

Q: How did the IC50 turn out when “6-Chloro-7-(8-methylnaphthyl)-8-fluoro-4-(((R)-4-acryloyl-2-methylpiperazine)-1-yl)-2-(((2R,7aS)-2-fluorotetrahydro-1H-pyrinyl-7a(5H)-yl)methoxy)quinazoline [Compound 73]” was run?
A: ≤ 50 nM

Q: Which IC50 does the source give for “6-Chloro-7-(8-methylnaphthyl)-8-fluoro-4-(((R)-4-acryloyl-2-methylpiperazine)-1-yl)-2-((((S))-2,2-Difluorotetrahydro-1H-pyrincycline-7a(5H)-yl)methoxy)quinazoline [Compound 74]” here?
A: ≤ 50 nM

Q: “6-Chloro-74(3-hydroxy-8-fluoronaphthyl)-8-fluoro-4-(((S)-4-(2-fluoroacryloyl)-3-carbonitrileethylpiperazine)-1-yl)-2-(((2R,7aS)-2-fluorotetrahydro-1H-pyrincycline-7a(5H)-yl)methoxy)quinazoline [Compound 43]” was tested. Which IC50 did it give?
A: ≤ 50 nM

Q: Which IC50 does the source give for “7-(2-Fluoro-6-hydroxyphenyl)-6-fluoro-4-(((S)-4-(2-fluoroacryloyl)-3-carbonitrileethylpiperazine)-1-yl)-2-(((S)-1-(methyl-d3)pyrrolidin-2-yl)methoxy)pyridine[2,3-d]lopyrimidine [Compound 11]” here?
A: > 2000 nM

Q: For “7-(3-Hydroxy-8-fluoronaphthyl)-8-fluoro-4-(((R)-4-acryloyl-2-methylpiperazine)-1-yl)-2-(((S)-2,2-difluorotetrahydro-1H-pyrincycline-7a(5H)-yl)methoxy)quinazoline [Compound 70]”, which IC50 is on record?
A: ≤ 50 nM

Q: How did the IC50 turn out when “7-(3-Hydroxy-8-fluoronaphthyl)-8-fluoro-4-(((S)-4-(2-fluoroacryloyl)-3-carbonitrileethylpiperazine)-2-((((S)-2,2-Difluorotetrahydro-1H-pyrincycline-7a(5H)-yl)methoxy)quinazoline [Compound 65]” was run?
A: ≤ 50 nM

Q: How did the IC50 turn out when “7-(3-Hydroxy-8-fluoronaphthyl)-8-fluoro-4-(((S)-4-acryloyl-3-carbonitrileethylpiperazine)-2-(((S)-2,2-difluorotetrahydro-1H-pyrincyclo-7a(5H)-yl)methoxy)quinazoline [Compound 64]” was run?
A: ≤ 50 nM

Q: For “7-(8-Chloronaphthalene)-4-(((R)-4-Acryloyl-2-methylpiperazine)-1-yl)-2-(((1-(pyrrolidin-1-yl)methancycloprop an-1-yl)methoxy)pyridine[2,3-d]lopyrimidine [Compound 14]”, which IC50 is on record?
A: ≤ 50 nM

Q: “7-(8-Chloronaphthalene)-4-(((R)-4-Acryloyl-2-methylpiperazine)-1-yl)-24(1-(N,N-dimethylamino)) methylcyclopropan-1-yl)methoxy)pyridine[2,3-d]lopyrimidine [Compound 23]” was tested. Which IC50 did it give?
A: ≤ 50 nM

Q: How did the IC50 turn out when “7-(8-Chloronaphthalene)-4-(((R)-4-Acryloyl-3-carbonitrileethylpiperazine)-1-yl)-2-(((1-(pyrrolidin-1-yl)methylcyclopropan-1-yl)methoxy)pyridine[2,3-d]lopyrimidine [Compound 16]” was run?
A: ≤ 50 nM

Q: For “7-(8-Chloronaphthalene)-4-(((R)-4-Acryloyl-3-carbonitrileethylpiperazine)-1-yl)-24(1-(N,N-dimethylaminyl)methylcyclopropan-1-yl)methoxy)pyridine[2,3-d]lopyrimidine [Compound 20]”, which IC50 is on record?
A: ≤ 50 nM

Q: How did the IC50 turn out when “7-(8-Fluoronaphthalene)-4-(((R)-4-Acryloyl-2-methylpiperazine)-1-yl)-2-(((1-(pyrrolidin-1-yl)methyl cyclopropan-1-yl)methoxy)pyridine[2,3-d]lopyrimidine [Compound 13]” was run?
A: ≤ 50 nM

Q: For “7-(8-Fluoronaphthalene)-4-(((R)-4-Acryloyl-2-methylpiperazine)-1-yl)-24(1-(N,N-dimethylamino)) methylcyclopropan-1-yl)methoxy)pyridine[2,3-d]lopyrimidine [Compound 24]”, which IC50 is on record?
A: ≤ 50 nM

Q: How did the IC50 turn out when “7-(8-Fluoronaphthalene)-4-(((R)-4-Acryloyl-3-carbonitrileethylpiperazine)-1-y1)-2-(((1-(pyrrolidin-1-yl)methylcyclopropan-1-yl)methoxy)pyridine[2,3-d]lopyrimidine [Compound 15]” was run?
A: ≤ 50 nM

Q: How did the IC50 turn out when “7-(8-Fluoronaphthalene)-4-(((R)-4-Acryloyl-3-carbonitrileethylpiperazine)-1-yl)-24(1-(N,N-dimethylamineyl)methylcyclopropan-1-yl)methoxy)pyridine[2,3-d]lopyrimidine [Compound 21]” was run?
A: ≤ 50 nM

Q: For “7-(8-Fluoronaphthyl)-6-fluoro-4-(8-(2-fluoroacryloyl)-3,8-diazabicyclo[3.2.1]octan-3-yl)-2-(((2R,7aS)-2-fluorotetrahydro-1H-pyrinyl-7a(5H)-yl)methoxy)pyridine[2,3-d]lopyrimidine [Compound 31]”, which IC50 is on record?
A: ≤ 50 nM

Q: “7-(8-Fluoronaphthyl)-6-fluoro-4-(((R)-4-acryloyl-2-methylpiperazine)-1-yl)-2-(((S)-2,2-difluorotetrahydro-1H-pyrincycl-7a(5H)-yl)methoxy)pyridine[2,3-d]lopyrimidine [Compound 79]” was tested. Which IC50 did it give?
A: ≤ 50 nM

Q: How did the IC50 turn out when “7-(8-Fluoronaphthyl)-6-fluoro-4-(((S)-4-(2-acryloyl)-3-carbonitrileethylpiperazine)-1-yl)-2-((((S)-1-(methyl-d3)pyrrolidin-2-yl)methoxy)pyridine[2,3-d]lopyrimidine [Compound 9]” was run?
A: ≤ 50 nM

Q: With “7-(8-Fluoronaphthyl)-8-fluoro-4-(((R)-4-acryloyl-2-methylpiperazine)-1-yl)-2-(((2R,7aS)-2-fluorotetrahydro-1H-pyrincyclo-7a(5H)-yl)methoxy)quinazoline [Compound 69]” as the substance, how does the IC50 read?
A: ≤ 50 nM

Q: How did the IC50 turn out when “7-(8-Fluoronaphthyl)-8-fluoro-4-(((S)-4-(2-fluoro acryloyl)-3-c arbonitrileethylpiperazine)-1-yl)-2-((tetrakis Hydrogen-1H-pyrinyl-7a(5H)-yl)methoxy)quinazoline [Compound 88]” was run?
A: ≤ 50 nM

Q: Which IC50 does the source give for “7-(8-Fluoronaphthyl)-8-fluoro-4-(((S)-4-acryloyl-3-carbonitrileethylpiperazine)-1-yl)-2-(((S)-2,2-Difluorotetrahydro-1H-pyrinyl-7a(5H)-yl)methoxy)quinazoline [Compound 63]” here?
A: ≤ 50 nM

Q: Which IC50 does the source give for “7-(8-Fluoronaphthyl)-8-fluoro-(((S)-4-(2-fluoroacryloyl)-3-carbonitrileethylpiperazine)-1-yl)-2-((((S)-2,2-difluorotetrahydro-1H-pyrincycline-7a(5H)-yl)methoxy)quinazoline [Compound 66]” here?
A: ≤ 50 nM

Q: With “7-(8-Methylnaphthalene)-4-(((R)-4-Acryloyl-2-methylpiperazine)-1-yl)-2-(((1-(pyrrolidin-1-yl)methylcyclopropan-1-yl)methoxy)pyridine[2,3-d]lopyrimidine [Compound 17]” as the substance, how does the IC50 read?
A: ≤ 50 nM

Q: For “7-(8-Methylnaphthalene)-4-(((R)-4-Acryloyl-2-methylpiperazine)-1-yl)-24(1-(N,N-dimethylamineyl)methylcyclopropan-1-yl)methoxy)pyridine[2,3-d]lopyrimidine [Compound 22]”, which IC50 is on record?
A: ≤ 50 nM

Q: How did the IC50 turn out when “7-(8-Methylnaphthalene)-4-(((R)-4-Acryloyl-3-carbonitrileethylpiperazine)-1-yl)-2-(((1-(pyrrolidin-1-yl))methylcyclopropan-1-yl)methoxy)pyridine[2,3-d]lopyrimidine [Compound 18]” was run?
A: ≤ 50 nM

Q: For “7-(8-Methylnaphthalene)-4-(((R)-4-Acryloyl-3-carbonitrileethylpiperazine)-1-yl)-24(1-(N,N-Dimethyl)amino)methylcyclopropan-1-yl)methoxy)pyridine[2,3-d]lopyrimidine [Compound 19]”, which IC50 is on record?
A: ≤ 50 nM

Q: With “7-(8-Methylnaphthyl)-4-(((R)-4-acryloyl-2-methylpiperazine)-1-yl)-2-(((S)-2,2-difluoro tetrahydro-1H-pyrincycl-7a(5H)-yl)methoxy)pyridine[2,3-d]lopyrimidine [Compound 87]” as the substance, how does the IC50 read?
A: ≤ 50 nM
